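Compound exposure: 48 hours, 5 concentrations, 96-well plates. TGI: concentration producing complete growth inhibition.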
Key:
Assay in all cases: NCI-60 cell line screen, 48 h
[1] = tested on: RXF 393 renal
[2] = tested on: IGROV1 ovarian
[3] = tested on: SF-268 CNS
[4] = tested on: HCT-15 colon
[5] = tested on: UACC-62 melanoma
[6] = tested on: MDA-N
[7] = tested on: SW-620 colon
[8] = tested on: COLO 205 colon
[9] = tested on: SF-539 CNS
[10] = tested on: ACHN renal
[11] = tested on: HCT-116 colon
[12] = tested on: K-562 leukemia
[13] = tested on: HS 578T breast
[14] = tested on: SNB-75 CNS
[15] = tested on: T-47D breast
[16] = tested on: MOLT-4 leukemia
[17] = tested on: PC-3 prostate
[18] = tested on: NCI/ADR-RES ovarian

`CCCC(=O)OC[n+]1cccc(-c2c(COC(=O)NC(C)C)c(COC(=O)NC(C)C)c3n2CCC3)c1` gave a TGI [1] of over 56.7 µM, a TGI [2] of over 100 µM and a TGI [3] of over 100 µM. The TGI [4] was over 100 µM, the TGI [5] was 61.8 µM and the TGI [6] was over 100 µM. The TGI [7] was over 100 µM, the TGI [8] was over 100 µM and the TGI [9] was 60.9 µM. It also gave a TGI [10] of over 100 µM, a TGI [11] of over 100 µM and a TGI [12] of over 100 µM. For the same compound, the TGI [13] was over 100 µM, the TGI [14] was over 100 µM and the TGI [15] was over 100 µM. The TGI [16] was over 83.3 µM, the TGI [17] was over 100 µM and the TGI [18] was over 100 µM.
In the case of `c1ccc2sc(C3(N4CCCCC4)CCCCCC3)cc2c1`, the TGI [1] is reported as 28.6 µM, the TGI [2] is reported as 52.7 µM and the TGI [3] is reported as 46.7 µM. It also gave a TGI [4] of 34.8 µM, a TGI [5] of 80.4 µM and a TGI [6] of over 100 µM. The TGI [7] was 25 µM, the TGI [8] was 31.8 µM and the TGI [9] was 38.2 µM. The TGI [10] was 35 µM, the TGI [11] was 32.8 µM and the TGI [12] was 31 µM. It also gave a TGI [13] of 42 µM, a TGI [14] of 42 µM and a TGI [15] of 31.6 µM. The TGI [16] was 29.6 µM, the TGI [17] was 29.3 µM and the TGI [18] was 45.8 µM.
`CN(C)CCNC(=O)c1cccc2nc3cccc(F)c3nc12` gave a TGI [1] of 4.11 µM, a TGI [2] of 9.67 µM and a TGI [3] of 19.4 µM. For the same compound, the TGI [4] was 5.77 µM, the TGI [5] was over 19.8 µM and the TGI [6] was 3.13 µM. It also gave a TGI [7] of 5.82 µM, a TGI [8] of 1.89 µM and a TGI [9] of 7.7 µM. For the same compound, the TGI [10] was 3.56 µM, the TGI [11] was 4.56 µM and the TGI [12] was 12.3 µM. The TGI [13] was 9.27 µM, the TGI [14] was 13.2 µM and the TGI [15] was over 28.4 µM. It also gave a TGI [16] of 14.2 µM, a TGI [17] of 4.26 µM and a TGI [18] of 3.83 µM.
`Cc1ccc(-n2c(Cn3nnc(-c4cccnc4)n3)nn(C3OC(COC(=O)c4ccccc4)C(OC(=O)c4ccccc4)C3OC(=O)c3ccccc3)c2=S)cc1` (stereo not drawn) showed a TGI [1] of over 100 µM, a TGI [2] of over 100 µM and a TGI [3] of over 100 µM. The TGI [4] was over 100 µM, the TGI [5] was over 100 µM and the TGI [6] was over 100 µM. It also gave a TGI [7] of over 100 µM, a TGI [8] of over 100 µM and a TGI [9] of over 100 µM. The TGI [10] was over 100 µM, the TGI [11] was over 100 µM and the TGI [12] was over 100 µM. It also gave a TGI [13] of over 100 µM, a TGI [14] of over 100 µM and a TGI [15] of over 100 µM. For the same compound, the TGI [16] was over 100 µM, the TGI [17] was over 100 µM and the TGI [18] was over 100 µM.
`CC(C)CC(=O)NC(NC(C)C)(C(F)(F)F)C(F)(F)F` gave a TGI [1] of over 100 µM, a TGI [2] of over 100 µM and a TGI [3] of over 100 µM. It also gave a TGI [4] of over 100 µM, a TGI [5] of over 100 µM and a TGI [6] of over 100 µM. It also gave a TGI [7] of over 100 µM, a TGI [8] of over 100 µM and a TGI [9] of over 100 µM. The TGI [10] was over 100 µM, the TGI [11] was over 100 µM and the TGI [12] was over 100 µM. The TGI [13] was over 100 µM, the TGI [14] was over 100 µM and the TGI [15] was over 100 µM. It also gave a TGI [16] of over 100 µM, a TGI [17] of over 100 µM and a TGI [18] of over 100 µM.
`CC1(C)CN=C(Nc2ccc(Cl)cc2)S1` gave a TGI [1] of over 100 µM, a TGI [2] of over 100 µM and a TGI [3] of over 100 µM. It also gave a TGI [4] of over 100 µM, a TGI [5] of over 100 µM and a TGI [6] of over 100 µM. The TGI [7] was over 100 µM, the TGI [8] was over 100 µM and the TGI [9] was over 100 µM. It also gave a TGI [10] of over 100 µM, a TGI [11] of over 100 µM and a TGI [12] of over 100 µM. For the same compound, the TGI [13] was over 100 µM, the TGI [14] was over 100 µM and the TGI [15] was over 100 µM. It also gave a TGI [16] of over 100 µM, a TGI [17] of over 100 µM and a TGI [18] of over 100 µM.
With `CCOC(=O)c1cc2c([nH]1)C(=O)CC1=C2CCN1Cc1ccccc1` the TGI [1] was 30.5 µM, the TGI [2] was 36 µM and the TGI [3] was 43.6 µM. The TGI [4] was 21.6 µM, the TGI [5] was 28.4 µM and the TGI [6] was 26.8 µM. For the same compound, the TGI [7] was 23.3 µM, the TGI [8] was 31.8 µM and the TGI [9] was 39.4 µM. The TGI [10] was 25.6 µM, the TGI [11] was 25.8 µM and the TGI [12] was 25.9 µM. For the same compound, the TGI [13] was 57.4 µM, the TGI [14] was 46.2 µM and the TGI [15] was 6.77 µM. For the same compound, the TGI [16] was 17 µM, the TGI [17] was 47.2 µM and the TGI [18] was 43.5 µM.
`COc1cc2c(cc1OC)C1(c3ccccc3)CN(C2)Cc2cc(OC)c(OC)cc21` was tested, and the TGI [1] was 60.3 µM, the TGI [2] was over 100 µM and the TGI [3] was over 100 µM. It also gave a TGI [4] of over 100 µM, a TGI [5] of over 100 µM and a TGI [6] of over 100 µM. It also gave a TGI [7] of over 100 µM, a TGI [8] of 34.2 µM and a TGI [9] of 41.9 µM. For the same compound, the TGI [10] was over 100 µM, the TGI [11] was over 100 µM and the TGI [12] was over 100 µM. It also gave a TGI [13] of 75.5 µM, a TGI [14] of 92.3 µM and a TGI [15] of over 100 µM. For the same compound, the TGI [16] was 84.7 µM, the TGI [17] was over 100 µM and the TGI [18] was 74.9 µM.
`CC1OC(OC2C(O)COC(OC3C(C)OC(OC4C(OC(=O)[C@]56CCC(C)(C)C[C@@H]5C5=CCC7[C@@]8(C)C[C@H](O)[C@H](OC9OC(CO)C(O)C(OC%10OC(CO)C(O)C(O)C%10O)C9O)[C@@](C)(CO)[C@@H]8CC[C@@]7(C)[C@]5(C)CC6)OCC(O)C4O)C(O)C3OC3OCC(O)C(O)C3O)C2O)C(O)C(O)C1O` (stereo partly drawn) was tested, and the TGI [1] was 21.6 µM, the TGI [2] was 24.5 µM and the TGI [3] was 30 µM. The TGI [4] was 28.2 µM, the TGI [5] was 12.6 µM and the TGI [6] was 7.24 µM. For the same compound, the TGI [7] was 20.6 µM, the TGI [8] was 3.82 µM and the TGI [9] was 32.1 µM. The TGI [10] was 19.5 µM, the TGI [11] was 23.7 µM and the TGI [12] was over 52.3 µM. It also gave a TGI [13] of 34.8 µM, a TGI [14] of 30.9 µM and a TGI [15] of 14 µM. The TGI [16] was 36.1 µM, the TGI [17] was 16.1 µM and the TGI [18] was 26.4 µM.
With `CC1=CCC[C@@H]2[C@@](C)(Cc3cc(O)ccc3O)[C@H](C)CC[C@@]12C` the TGI [1] was 17.1 µM, the TGI [2] was 18.2 µM and the TGI [3] was 24 µM. For the same compound, the TGI [4] was 16 µM, the TGI [5] was 25.1 µM and the TGI [6] was 17 µM. The TGI [7] was 25.2 µM, the TGI [8] was 36.5 µM and the TGI [9] was 18.4 µM. It also gave a TGI [10] of 18 µM, a TGI [11] of 18.8 µM and a TGI [12] of 36 µM. The TGI [13] was 20.6 µM, the TGI [14] was 17.9 µM and the TGI [15] was 20.1 µM. The TGI [16] was 15 µM, the TGI [17] was 14.1 µM and the TGI [18] was 18.9 µM.
With `Cc1c(CCCl)c(N=[N+]=[N-])n2c(nc3ccccc32)c1C#N` the TGI [1] was 2.85 µM, the TGI [2] was 1.64 µM and the TGI [3] was 5.67 µM. The TGI [4] was 2.72 µM, the TGI [5] was 3.12 µM and the TGI [6] was 3.12 µM. It also gave a TGI [7] of 1.21 µM, a TGI [8] of 2.66 µM and a TGI [9] of 3.5 µM. For the same compound, the TGI [10] was 2.85 µM, the TGI [11] was 1.55 µM and the TGI [12] was 1.48 µM. For the same compound, the TGI [13] was 2.43 µM, the TGI [14] was 2.87 µM and the TGI [15] was 3.18 µM. For the same compound, the TGI [16] was 1.12 µM, the TGI [17] was 2.72 µM and the TGI [18] was 5.53 µM.
`CC1C/C(=N\N(C)C)C(C#N)(C#N)C1(C#N)C#N` (stereo not drawn) gave a TGI [1] of 23.9 µM, a TGI [2] of 38.8 µM and a TGI [3] of 24.8 µM. The TGI [4] was 21.1 µM, the TGI [5] was 39.5 µM and the TGI [6] was 33 µM. For the same compound, the TGI [7] was over 100 µM, the TGI [8] was 5.67 µM and the TGI [9] was 34.8 µM. The TGI [10] was 23.1 µM, the TGI [11] was 38.4 µM and the TGI [12] was over 100 µM. For the same compound, the TGI [13] was over 88.3 µM, the TGI [14] was 27 µM and the TGI [15] was 37.7 µM. The TGI [16] was 6.9 µM, the TGI [17] was 47.2 µM and the TGI [18] was 75.8 µM.
`CN(C)C=Nc1cccc2cnccc12` showed a TGI [1] of over 100 µM, a TGI [2] of over 100 µM and a TGI [3] of over 100 µM. For the same compound, the TGI [4] was over 100 µM, the TGI [5] was over 100 µM and the TGI [6] was over 100 µM. It also gave a TGI [8] of over 100 µM, a TGI [9] of over 100 µM and a TGI [10] of over 100 µM. It also gave a TGI [11] of over 100 µM, a TGI [12] of over 100 µM and a TGI [13] of over 100 µM. For the same compound, the TGI [14] was over 100 µM, the TGI [15] was over 100 µM and the TGI [16] was over 100 µM. It also gave a TGI [17] of over 100 µM and a TGI [18] of over 100 µM.
